Measurements reported in US20090324616A1, “DIFFERENTIAL CYTOKINE EXPRESSION IN HUMAN CANCER” (priority 2006, published 2009).

T1: human Interleukin4 (IL4) (Homo sapiens, UniProt P05112)
T1 sequence (P05112 25-153): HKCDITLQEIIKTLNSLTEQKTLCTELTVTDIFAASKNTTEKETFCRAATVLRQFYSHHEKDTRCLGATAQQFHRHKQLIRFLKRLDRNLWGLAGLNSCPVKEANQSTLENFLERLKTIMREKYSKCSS

B1: IL-4: human recombinant IL-4 (Euroclone), used at 20 ng/ml (protein)
chain: T1 sequence (P05112 25-153)

How the values were obtained:
[1] = system: Primary (adherent) cells from human colon cancer specimens; test: Viability of primary (adherent) colon cancer cells exposed to drugs; assay type: cell-based; conditions: cisplatinum 300 ng/ml, oxaliplatin 100 μM, TRAIL 200 ng/ml; FIG. 6a
Description: (§1) Survival and death assays. To evaluate apoptotic events the DNA staining and flow cytometry analysis were performed. The percentage of hypodiploid nuclei was evaluated as described in Stassi et al., Cancer Res. 2003, 63 (20):6784-90. Alternatively, human purified cancer cells were plated in 96-well plates in triplicate at 15,000 cells/well and cultured. The number of viable cells was detected by CellTiter Aqueous Assay Kit (Promega Corporation, WI, USA) following the instructions of manufacturer. HuT78 cells plated at […] and treated with CD95-activating antibody CH11 (200 ng/ml) were used as a positive control for cell death measurement.
(§2) To investigate the sensitivity of colon CSC to chemotherapeutic drugs, the viability of colon CSC spheroids exposed to cisplatinum (300 ng/ml) and oxaliplatin (100 μM) was measured, doses equivalent to those reached during cancer treatment in vivo. In addition, colon CSC were treated with the apoptosis-inducing death ligand TRAIL (200 ng/ml).

colon CSC = test: Viability of colon CSC spheroids exposed to drugs; assay type: cell-based, human; conditions: cisplatinum 300 ng/ml, oxaliplatin 100 μM, TRAIL 200 ng/ml, FIG. 6a
Description: as §1, §2

[2] = system: colon cancer generated by CSC; test: IL-4 neutralization in vivo, colon tumours generated by CSC; conditions: oxaliplatin i.p. once a week for 4 weeks, combined with control IgG; mice
Text: Tumours were allowed to grow for 10 days (size ˜0.2 cm^3) and then treated intra-tumourally with neutralising antibodies against IL-4 or control IgG twice a week for 3 weeks.

[3] = system: primary colon cancer cells; test: Primary colon cancer cell viability (MTS), combination with oxaliplatin; assay type: cell-based; conditions: 10 μg pre-treatment 24 hrs, then 100 μM oxaliplatin 24 hrs; FIG. 11C
Description: On primary colon cancer cells the IL4R-Fc and IL4R-IL13R-Fc constructs were tested in combination with oxaliplatin treatment. Primary colon cancer cells pre-treated with PBS (w/o) or 10 μg of IL4R-Fc, IL4R-IL13R-Fc or anti IL4-antibody for 24 hrs and successively exposed for another 24 hrs to 100 μM oxaliplatin. The graphs show the percentage of cell viability measured by MTS analysis (CellTiter 96, Aquos, Promega).

human Interleukin4 (IL4) = molecular target: T1, human Interleukin4 (IL4); test: IL-4-pull down assay; assay type: binding; conditions: 4 μg protein immobilized to Streptactin Sepharose, 400 ng IL4, 60 min; FIG. 10
Description: To test for specific IL-4 binding of IL4R-Fc and IL4R-IL13R-Fc, 4 μg of both proteins, respectively, were immobilized to Streptactin Sepharose via their Strep-Tag. The immobilized proteins were subsequently incubated for 60 min with 400 ng of recombinantly expressed human Interleukin4 (IL4) in a total volume of 400 μl phosphate buffered saline. Subsequently the beads were washed and bound proteins were specifically eluted with desthiobiotin in a total volume of 40 μl elution buffer. Eluted proteins were finally analysed via SDS-PAGE and Silver staining.

breast cancer stem cells = test: Apoptosis of breast cancer spheres, combination with doxorubicin; assay type: cell-based; conditions: 10 μg pre-treatment 24 hrs, then 5 μM doxorubicin 24 hrs; for sensitisation for doxorubicin induced apoptosis compared with IL-4 specific antibody (positive control): FIG. 11B; for amount of apoptotic breast cancer stem cells: compared with Doxorubicin alone, FIG. 11A
Description: To test for the ability of IL4R-Fc and IL4R-IL13R-Fc to induce apoptosis, both proteins were added to the growth medium of breast cancer stem cells either alone or in combination with doxorubicin. […] The cells were stained with orange acridine/ethidium bromide (red: dead cells; green: viable cells).

[4] = system: cFLIP, PED/PEA-15, Bcl-xL and Bcl-2 in normal colon, breast, gastric and lung cells; test: Anti-apoptotic protein expression in normal cells pre-incubated with IL-4; assay type: cell-based, human; conditions: gastric and lung cells pre-incubated with IL-4, FIG. 3c
Description: (§3) Human primary cell purification. Normal and cancer tissues were digested for 2 hours with collagenase (1.5 mg/ml) (Gibco BRL., Grand Island, N.Y.) and hyaluronidase (20 μg/ml) (Sigma Chemical Co., St. Louis, Mo.) as previously described (1). Once digested, cells were maintained on plastic in DMEM medium (EuroClone Ltd., West York, UK) at 37° C. in a humidified atmosphere of 5% CO2. Following 12 further hours of culture, cancer cells were allowed to grow in monolayer for the immunocytochemistry or detached with trypsin+EDTA for functional, protein expression and gene transcript levels analyses. For colon and gastric cells culture, plastic was coated with[…] of collagen (Calbiochem GmbH, Darmstadt, Germany). […]
Protein isolation and western blotting analysis. […] Immunoblotting of Abs specific for actin (Ab-1, mouse IgM, Calbiochem, Darmstadt, Germany), CD95L (G2474, mouse IgG1, PharMingen, San Diego), CD95 (C-20, Santa Cruz Biotechnology), cFLIP (NF6 mouse IgG1, Alexis Biochemicals, Switzerland), PED/PEA-15 (rabbit IgG kindly provided by G. Condorelli), Bcl-2 (124, mouse IgG1, Upstate Biotechnology Inc.) and Bcl-XI (H-5, mouse IgG1, Santa Cruz Biotechnology) was detected by HRP-conjugated anti-mouse or anti-rabbit Abs (Amersham Biosciences UK Limited, England) and visualized with the chemiluminescence detection system (SuperSignal West Dura Extended duration Substrate, Pierce, Ill., USA). […]

[5] = system: colon, breast, gastric and lung normal cells; test: Cell growth of normal cells exposed to IL-4; assay type: cell-based, human; conditions: 20 ng/ml of IL-4; FIG. 3b
Description: as §3
Survival and death assays. […] The percentage of hypodiploid nuclei was evaluated as described in Stassi et al., Cancer Res. 2003, 63 (20):6784-90. […] The number of viable cells was detected by CellTiter Aqueous Assay Kit (Promega Corporation, WI, USA) following the instructions of manufacturer. […]
In order to investigate the possible involvement of IL-4 on tumour cell survival, colon, breast, gastric and lung normal cells were exposed to 20 ng/ml of IL-4 and analyzed for cell growth.

| binding of human IL-4 (pull down, SDS-PAGE and Silver staining) (human Interleukin4 (IL4)) | Molecule | sensitivity in vitro (viability) [1] | sensitivity to drug-induced apoptosis (viability) (colon CSC) | cell viability (MTS) in comparison with oxaliplatin treatment alone [3] | sensitisation for doxorubicin induced apoptosis compared with IL-4 specific antibody (positive control) (breast cancer stem cells) | amount of apoptotic breast cancer stem cells (breast cancer stem cells) | further results |
| --- | --- | --- | --- | --- | --- | --- | --- |
|  | TRAIL | some sensitivity | significantly resistant |  |  |  |  |
|  | O=C1[O][Pt]2([NH][C@@H]3CCCC[C@H]3[NH]2)[O]C1=O [oxaliplatin] | some sensitivity | significantly resistant |  |  |  | tumour size [2]: reduced tumour size |
| specific binding | IL4R-Fc: shortened extracellular domain of IL-4-Receptor-alpha (aa1-aa224) fused to the Fc-part of human IGHG1, with Flexstreptag-II |  |  | reduced cell viability | in the same range | clearly increased |  |
| specific binding | IL4R-IL13R-Fc: IL-4-Receptor-alpha extracellular domain fused to IL13-receptor alpha extracellular domain and Fc-part of human IGHG1, with Flexstreptag-II |  |  | reduced cell viability | in the same range | clearly increased |  |
|  | N.N.[Cl][Pt][Cl] [cisplatinum] | some sensitivity | significantly resistant |  |  |  |  |
|  | B1 |  |  |  |  |  | protein levels of cFLIP, PED/PEA-15, Bcl-xL and Bcl-2 [4]: increased; growth rate of colon, breast and lung normal cells [5]: significantly increased |
